Key:
[1] = biological target: human prostatic acid phosphatase (PAP) (Homo sapiens, UniProt P15309); experiment: Time-dependent inactivation of prostatic acid phosphatase (residual activity with PNPP); format: biochemical; conditions: for time-dependent inactivation of PAP: incubation with PAP (2 μg/mL), 100 mM sodium acetate buffer pH 5.0, 25° C.; for protection of PAP against inactivation by FMPP: competitive inhibitors of PAP added
Procedure: Reactions were performed by incubating 1 or 9 with PAP (2 μg/mL) in 100 mM sodium acetate buffer pH 5.0 at 25° C. Residual PAP activity was determined by removing 20 μL aliquots and adding them to a 1 mL solution of 3.0 mM p-nitrophenyl phosphate (PNPP) in 100 mM sodium acetate buffer pH 5.0. After 5 minutes in PNPP, the reactions were quenched with 100 μL of 1.25N NaOH. p-Nitrophenoxide concentration was quantitated from the absorbance at 405 nm, using an extinction coefficient of 18,000 M-1 cm-1. (A) Residual PAP activity after incubation with varying concentrations of 1; 5.0 mM (filled circles), 500 μM (open squares), 125 μM (open triangles), 70 μM (filled diamonds), and 50 μM (open circles). (B) Residual PAP activity after treatment with 6.6 mM FMPP (open triangles), or 23 mM of the phosphonate (15 X Ki) (closed circles).
In this experimental, human prostatic acid phosphatase (PAP) was used as a model enzyme. […] This phosphatase is an important diagnostic marker for prostate cancer, and there is evidence that it may be involved in the regulation of androgen receptor activity in prostate cells.

[2] = biological target: YOP 51 (Yersinia enterocolitica, UniProt P15273); experiment: Time-dependent inactivation testing with YOP 51; format: biochemical; conditions: incubated in a fashion similar to FIG. 1
YOP 51, sequence (P15273 whole entry): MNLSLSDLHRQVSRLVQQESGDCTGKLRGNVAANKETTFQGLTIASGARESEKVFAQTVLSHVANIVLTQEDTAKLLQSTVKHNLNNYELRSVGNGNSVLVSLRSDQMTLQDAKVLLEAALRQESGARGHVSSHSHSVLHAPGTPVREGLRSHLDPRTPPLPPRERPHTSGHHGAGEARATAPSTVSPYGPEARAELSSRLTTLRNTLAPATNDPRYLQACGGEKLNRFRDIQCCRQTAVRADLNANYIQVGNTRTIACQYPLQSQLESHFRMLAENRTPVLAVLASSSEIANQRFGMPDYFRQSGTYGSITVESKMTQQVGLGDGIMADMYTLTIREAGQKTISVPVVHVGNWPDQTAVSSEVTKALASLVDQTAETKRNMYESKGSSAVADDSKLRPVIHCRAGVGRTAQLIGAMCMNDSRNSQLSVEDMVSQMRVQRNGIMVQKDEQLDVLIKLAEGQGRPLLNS

human prostatic acid phosphatase (PAP), sequence (P15309 33-386): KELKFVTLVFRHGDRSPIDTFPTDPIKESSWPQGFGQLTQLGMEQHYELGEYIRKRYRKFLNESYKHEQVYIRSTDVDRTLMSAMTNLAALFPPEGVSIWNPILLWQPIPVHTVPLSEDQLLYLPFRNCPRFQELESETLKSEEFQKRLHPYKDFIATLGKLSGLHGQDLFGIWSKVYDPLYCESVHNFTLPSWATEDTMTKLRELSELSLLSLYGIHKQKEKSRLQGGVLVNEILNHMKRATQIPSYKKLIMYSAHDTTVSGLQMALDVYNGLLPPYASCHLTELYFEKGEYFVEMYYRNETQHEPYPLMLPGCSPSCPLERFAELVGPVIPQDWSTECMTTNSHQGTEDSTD

SMILES: O=P(O)(O)Oc1ccc(CF)cc1 [FMPP, 4-(fluoromethyl)phenyl phosphate]
- KI (inactivation) ([1]; read-out: Ki (saturation kinetics of the inactivation process), purified PAP): 150 µM

SMILES: C=C(Br)OP(=O)(OCC)OCC [XVI, Diethyl 1-Bromovinyl Phosphate]
- inactivation of YOP 51 [2]: succesful inactivation of the enzyme

SMILES: O=P(O)(O)Oc1ccc(CBr)cc1 [bromo analogue of FMPP]
- time-dependent inactivation of PAP [1]: proved to inactivate the PAP enzyme

SMILES: O=P(O)(O)Oc1ccc(CCl)cc1 [chloro analogue of FMPP]
- time-dependent inactivation of PAP [1]: proved to inactivate the PAP enzyme

SMILES: O=P(O)(O)O [inorganic phosphate, reference compound]
- protection of PAP against inactivation by FMPP [1]: protect against inactivation

SMILES: O=[N+]([O-])c1cc(CCl)ccc1OP(=O)(O)O [ortho-nitro chloro analogue of FMPP]
- potency of PAP inactivation relative to FMPP or its analogues [1]: substantially greater potency
- time-dependent inactivation of PAP [1]: succesfully inactivated the PAP enzyme

SMILES: O=C(O)C(O)C(O)C(=O)O (centres unmarked) [tartaric acid, reference compound]
- protection of PAP against inactivation by FMPP [1]: protect against inactivation

Source: patent US5714361A, “Phosphatase/phosphodiesterase enzyme inhibitors and methods” (priority 1994, dated 1998)
